Measurements as given in PMC5618334, “Hydrocarbon constrained peptides – understanding preorganisation and binding affinity” (Chemical Science, 2016).
Where a SMILES comes first, the peptide text is derived from it. [ ]: non-standard residue; d: D form. Nle = CCCC[C@H](N)C(=O)O

Experiments:
Assay type in all cases: binding
Bcl-xL/BODIPY-BAK = molecular target: T1, Bcl-xL/BODIPY-BAK (Homo sapiens, UniProt Q07817, DEL26-81); assay: Fluorescence anisotropy competition assay, inhibition of Bcl-xL/BODIPY-BAK interaction
T1 construct: pET28a His-SUMO Bcl-xL (1-198, missing 26-81); His-SUMO (N, cleaved yes); made in house; host or cells: E. coli Rosetta 2
T1 sequence (Q07817 with tags, fused parts or gaps DEL26-81): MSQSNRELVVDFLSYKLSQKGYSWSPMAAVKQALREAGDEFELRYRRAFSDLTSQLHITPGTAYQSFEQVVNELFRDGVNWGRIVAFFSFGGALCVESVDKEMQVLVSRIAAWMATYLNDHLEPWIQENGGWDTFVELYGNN
Procedure: (§1) To profile the binding behaviour of the constrained peptides we tested them in both competition displacement assays and direct binding assays. […] Of particular interest was the potential for the introduction of a constraint to have differential effects on protein specificity/selectivity. […] We next tested the constrained peptides in inhibition assays (Fig. 3a and b and Table 2). […]
(§2) constructs were over-expressed in the E. coli strain Rosetta 2. Cells were resuspended in 50mM TRIS pH 8.0, 500mM NaCl, 15mM Imidazole and lysed by sonication. The clarified lysate was applied to a 5ml HisTrap column equilibrated with 50mM TRIS pH 8.0, 500mM NaCl, 15mM Imidazole. The HisTrap was then washed with 10 CV of 50mM TRIS pH 8.0, 500mM NaCl, 15mM Imidazole followed by 10 CV 50mM TRIS pH 8.0, 500mM NaCl, 25mM Imidazole. The fusion proteins were eluted in 50mM TRIS pH 8.0, 500mM NaCl, 300mM Imidazole. TheHis-SUMO tag was removed in overnight in dialysis into 50mM TRIS pH 8.0, 250mM NaCl in the presence of Smt3 protease, Ulp1, overnight at 4°C. Uncleaved material and His-SUMO were removed by reapplication of the sample to a HisTrap in 50mM TRIS pH 8.0, 250mM NaCl and the flow through containing Mcl- […]
(§3) The proteins were then filtered before further purification on a Superdex 75 (GE […]
(§4) proteins were concentrated and stored at -80°C.
(§5) The assays were performed as detailed in 10, 11.
(§6) The buffers used for fluorescence anisotropy were either phosphate buffer (40 mM sodium phosphate, 200 mM sodium chloride, 0.02 mg ml-1 bovine serum albumin, pH 7.50) or Tris buffer (50 mM Tris, 140 mM sodium chloride, pH 7.50). Phosphate buffer was used for all competition assays […]
(§7) Assays were run in 96 or 384 well Optiplates and were scanned using a Perkin Elmer EnVisionTM 2103 MultiLabel plate reader. Fluorescein labelled peptides used an excitation and emission wavelength of 480 (30) nm and 535 (40) nm respectively (dichroic mirror 505 nm) whilst BODIPY labelled peptides used an excitation and emission wavelength of 531 (25) nm and 595 (60) nm respectively (dichroic mirror 555 nm), […]
(§8) Plates were read after 1 h […]
(§9) respectively. Plates were read after 1 h. […]
(§10) Processing of fluorescence anisotropy data
(§11) Fluorescence anisotropy data was processed using Microsoft Excel to calculate intensity, anisotropy […]
(§12) b (λ(rmax − r) + r − rmin) r = anisotropy, I = total intensity, P = perpendicular intensity, S = parallel intensity, Lb = fraction ligand bound, λ = Ibound/Iunbound , G = 1= instrumental factor. […]
(§13) the calculation of IC50 and EC50) or to the Kd model for the extraction of Kd values:
(§14) Where for the logisitic model; y = r = anisotropy, xo = mid-point of the curve between the rmax and rmin […]
(§15) For the Kd model; y = Lb*[FL], K = Kd, [FL] = Concentration of fluorescent ligand.

Mcl-1/FITC-NOXA-B = molecular target: T2, Mcl-1/FITC-NOXA-B (Homo sapiens, UniProt Q07820); assay: Fluorescence anisotropy competition assay, inhibition of Mcl-1/FITC-NOXA-B interaction
T2 construct: His-SUMO (N, cleaved yes); made in house; host or cells: E. coli Rosetta 2
T2 sequence (Q07820 172-327): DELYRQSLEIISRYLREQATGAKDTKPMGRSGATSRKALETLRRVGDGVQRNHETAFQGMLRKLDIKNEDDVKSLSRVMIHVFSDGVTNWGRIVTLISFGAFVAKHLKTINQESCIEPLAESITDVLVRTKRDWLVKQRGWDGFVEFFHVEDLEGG
Procedure: as §1, §2, §3, §4, §5, §6, §7, §8, §9, §10, §11, §12, §13, §14, §15

Bcl-xL = molecular target: T3, Bcl-xL (Homo sapiens, UniProt Q07817, DEL26-81); assay: Surface plasmon resonance (SPR), peptides flowed over immobilised His-SUMO Bcl-xL; conditions: SPR Biacore 3000, His-SUMO Bcl-xL on Ni-NTA chip, PBS with 0.01 mg/mL BSA, 0.1% Tween 20, 1:1 model, average of at least 3 data sets; for Kd: read-out: Bcl-xL K d; for koff: read-out: Bcl-xL k off; for kon: read-out: Bcl-xL k on
T3 construct: pET28a His-SUMO Bcl-xL (1-198, missing 26-81); made in house; host or cells: E. coli Rosetta 2
T3 sequence (Q07817 with tags, fused parts or gaps DEL26-81): as the sequence (Q07817 with tags, fused parts or gaps DEL26-81) above
Procedure: To investigate how the hydrocarbon constraint affects binding kinetics, we established a surface plasmon resonance (SPR) based assay. […] BID-WT and BID-MM were then flowed over the immobilised protein. […] These experiments were repeated for the BIM series of peptides.
SPR of BIM series of peptides
The binding kinetics and affinities were analysed by SPR (Biacore 3000). […]
immobilised on an Ni-NTA chip non-covalently in PBS with 0.01mg/ML BSA and 0.1% Tween 20 […]
(Running buffer). […] For the […]
the peptides were diluted into running buffer. Experiments were run at 40ul/min in running buffer.
20 minute dissociation period. The binding kinetic parameters were evaluated with BIA-Evaluation software (BIAcore 3000) in which all data sets were fit to a simple 1:1 (Langmuir) binding model. […]
(1 picture or pasted object on this page, not shown here)

Row | IC50 (Bcl-xL/BODIPY-BAK) [nM] | IC50 (Mcl-1/FITC-NOXA-B) [nM] | Kd (Bcl-xL) [nM] | koff (Bcl-xL) [s⁻¹] | kon (Bcl-xL) [M⁻¹ s⁻¹] | Structure (SMILES)
1 | 1440 ± 50 | 390 ± 80 | 57 ± 16 | 0.01 | 180000 | CCCC[C@H](NC(=O)[C@H](CO)NC(=O)[C@H](CC(=O)O)NC(=O)CNC(=O)[C@@H](NC(=O)[C@H](CCC(N)=O)NC(=O)[C@H](C)NC(=O)[C@H](CC(C)C)NC(=O)[C@H](Cc1c[nH]cn1)NC(=O)[C@H](CCCNC(=N)N)NC(=O)[C@H](C)NC(=O)[C@@H](NC(=O)[C@H](CC(N)=O)NC(=O)[C@H](CCCNC(=N)N)NC(=O)[C@@H](NC(=O)[C@@H](NC(=O)[C@H](CC(=O)O)NC(=O)[C@H](CCC(=O)O)NC(C)=O)[C@@H](C)CC)[C@@H](C)CC)[C@@H](C)CC)C(C)C)C(=O)N[C@@H](CC(=O)O)C(=O)N[C@@H](CCCNC(=N)N)C(=O)N[C@@H](CO)C(=O)N[C@H](C(=O)N[C@@H](Cc1c[nH]c2ccccc12)C(N)=O)[C@@H](C)CC [BID-WT, reference compound] (Ac-EDIIRNIARHLAQVGDS[Nle]DRSIW-NH2)
2 | 1140 ± 40 | 800 ± 70 | 178 ± 52 | 0.003 | 17500 | CCCC[C@H](NC(=O)[C@]1(C)CCCC=CCCC[C@](C)(NC(=O)[C@H](C)NC(=O)[C@H](CC(C)C)NC(=O)[C@H](Cc2c[nH]cn2)NC(=O)[C@H](CCCNC(=N)N)NC(=O)[C@H](C)NC(=O)[C@@H](NC(=O)[C@H](CC(N)=O)NC(=O)[C@H](CCCNC(=N)N)NC(=O)[C@@H](NC(=O)[C@@H](NC(=O)[C@H](CC(=O)O)NC(=O)[C@H](CCC(=O)O)NC(C)=O)[C@@H](C)CC)[C@@H](C)CC)[C@@H](C)CC)C(=O)N[C@@H](C(C)C)C(=O)NCC(=O)N[C@@H](CC(=O)O)C(=O)N1)C(=O)N[C@@H](CC(=O)O)C(=O)N[C@@H](CCCNC(=N)N)C(=O)N[C@@H](CO)C(=O)N[C@H](C(=O)N[C@@H](Cc1c[nH]c2ccccc12)C(N)=O)[C@@H](C)CC [BID-DM]
3 | 620 ± 20 | 1600 ± 120 | 107 ± 29 | 0.003 | 31000 | CCCC[C@H](NC(=O)[C@@H]1CCC/C=C\CCC[C@H](NC(=O)[C@H](C)NC(=O)[C@H](CC(C)C)NC(=O)[C@H](Cc2c[nH]cn2)NC(=O)[C@H](CCCNC(=N)N)NC(=O)[C@H](C)NC(=O)[C@@H](NC(=O)[C@H](CC(N)=O)NC(=O)[C@H](CCCNC(=N)N)NC(=O)[C@@H](NC(=O)[C@@H](NC(=O)[C@H](CC(=O)O)NC(=O)[C@H](CCC(=O)O)NC(C)=O)[C@@H](C)CC)[C@@H](C)CC)[C@@H](C)CC)C(=O)N[C@@H](C(C)C)C(=O)NCC(=O)N[C@@H](CC(=O)O)C(=O)N1)C(=O)N[C@@H](CC(=O)O)C(=O)N[C@@H](CCCNC(=N)N)C(=O)N[C@@H](CO)C(=O)N[C@H](C(=O)N[C@@H](Cc1c[nH]c2ccccc12)C(N)=O)[C@@H](C)CC [BID-MM]
